# Measured values as given in patent US4511390A, “Aralkylcarbamoyl peptide alcohols” (E. I. Du Pont de Nemours and Company, priority 1983, dated 1985).
# Values joined by “and” are separate entries in the source; they are usually repeats but may differ in a detail not shown here. Equal entries are not always repeated.
# What was measured:
# [1] = test system: corn root sections; assay: Nitrate ion uptake by corn root sections measured with radioactive chlorate ion (36ClO3-) as mimic; type: cell-based, Corn (Pioneer Hybrid 3320); conditions: 50 ppm test compound; for activation at 50 ppm: Zea mays, read-out: Ion Uptake (percent increase over control) 36ClO3-
# Experimental: (§1) Corn (Pioneer Hybrid 3320), wheat (Arther), sorghum (SC-599-6), barley (CM-721), rice (m101), and cotton (Tamcot SP-37) seeds were disinfected with a 1% sodium hypochlorite solution and placed in 20.3 cm×30.5 cm×5.1 cm Pyrex glass utility trays which were lined with 4 layers of bleached paper towels and irrigated with 150 mL of 0.2 mM CaCl2 solution. The trays were covered with plastic food wrap, perforated to permit air exchange, and placed in a dark growth room which was maintained at 30° and 90% relative humidity. About 48 hours later, another 150 mL of 0.2 mM CaCl2 solution was added to each tray to maintain water sauration of the paper towels.
# (§2) Two centimeter root sections were cut 0.5 to 2.5 cm from the tip of 3-day-old etiolated seedling roots. Batches of 20 (for corn and cotton), or 40 (for wheat, barley and rice) root sections were tied in cheesecloth bags, leaving a 20-30 cm length of string to facilitate movement between test solutions. Root tissue was washed at 30±1° by immersing the cheesecloth bags in a well-aerated 0.2 mM K2 HPO4 /KH2 PO4 solution, pH 6.0, for 4 hours. During the last 30 minutes of this washing period, 1 mM potassium nitrate solution was introduced to induce nitrate reductase activity. For uniformity, 100 mL washing solution was used for every bag of root sections (about 300 mg fresh tissue).
# Nitrate ion uptake was measured using radioactive chlorate ion (^36 ClO3⊖) as a mimic for nitrate ion (Deane-Drummond et al., Plant Physiol. 70:50-54 (1982)). Uptake was measured by incubating 20 or 40 cheesecloth-bound washed root segments for 30 minutes in 100 mL absorption solution. The absorption solution contained 0.5 mM potassium nitrate, 0.2 mM calcium chloride, 5 mM MES buffer, and 5 mg/L sodium molybdate. This solution was adjusted to pH 6 with potassium hydroxide, and labeled with 10,000 cpm/ml of carrier-free radioactive chlorate ion. Absorption temperatures was maintained at 30±1° in a water bath, and moderate aeration was provided. All test compounds were added to the absorption solution. After the absorption period, the cheesecloth bag containing root sections was rinsed with distilled water for 10 seconds and then immersed in 100 mL of ice-cold, aerated 0.2 mM calcium chloride solution for 20 minutes to remove exchangeable components of absorbed ^36 ClO3⊖. Root sections were then removed from the cheesecloth bags, blotted dry, placed in a preweighed scintillation vial, and weighed to determine fresh tissue weight. One mL water and 10 mL Scinti Verse I (Fisher Scientific Co.) scintillation fluid were added, and radioactivity determined by scintillation counting. The rate of nitrate (^36 ClO3⊖) uptake in micromols per gram fresh weight of tissue per hour was calculated.
# (§3) Test compounds are identified in Table I by Example number, and by the identity of substituents X, Y, Z and R in the following formula: [drawing 23]
# [2] = test system: corn root sections; assay: Nitrate ion uptake by corn root sections (nitrate ion specific electrode); type: cell-based, Corn (Pioneer Hybrid 3320); conditions: for Ion Uptake (percent increase over control) NO3-: 50 ppm test compound, corn root sections
# Experimental: as §1, §2
# (§4) Nitrate ion uptake into corn roots was also determined by homogenizing root segments previously exposed to the nitrate absorption solution (without added ^36 ClO3⊖) with a precooled glass homogenizer in 5 mL of cold extraction medium. This medium contained 23 mM phosphate buffer pH 8.8, 5 mM cysteine, 2.5 mM EDTA, and 0.1% Neutronyx 600 (Onyx Chemical Co., Jersey City, N.J.). The resulting homogenate was centrifuged at 30,000 xg for 15 minutes, and an aliquot of the resulting supernatant solution reserved for nitrate ion determination, using an Orion nitrate ion specific electrode. The same tissue extract was used for nitrate reductase activity determination (below).
# as §3
# [3] = pKa; type: physicochemical; conditions: two values given
# [4] = test system: NO3 Reductase; assay: Nitrate reductase activity in extracts of treated corn root sections; type: cell-based, Corn (Pioneer Hybrid 3320); conditions: 50 ppm test compound
# Experimental: as §1, §2
# as §4, with “The same tissue extract was used for nitrate reductase activity determination (below).” left out
# Nitrate reductase activity was determined using a modification of the procedure of Hageman and Huckles- by, Methods Enzymol. […]
# [5] = test system: sorghum root sections; assay: Nitrate ion uptake by plant root sections, sorghum; type: cell-based, sorghum (SC-599-6)
# Experimental: as §1
# (§5) Two centimeter root sections were cut 0.5 to 2.5 cm from the tip of 3-day-old etiolated seedling roots. […]
# (§6) Nitrate ion uptake was measured using radioactive chlorate ion (^36 ClO3⊖) as a mimic for nitrate ion (Deane-Drummond et al., Plant Physiol. 70:50-54 (1982)). Uptake was measured by incubating 20 or 40 cheesecloth-bound washed root segments for 30 minutes in 100 mL absorption solution. […] One mL water and 10 mL Scinti Verse I (Fisher Scientific Co.) scintillation fluid were added, and radioactivity determined by scintillation counting. The rate of nitrate (^36 ClO3⊖) uptake in micromols per gram fresh weight of tissue per hour was calculated.
# [6] = test system: wheat root sections; assay: Nitrate ion uptake by plant root sections, wheat; type: cell-based, wheat (Arther)
# Experimental: as §1, §5, §6
# [7] = test system: cotton root sections; assay: Nitrate ion uptake by plant root sections, cotton; type: cell-based, cotton (Tamcot SP-37)
# Experimental: as §1, §5, §6
# [8] = test system: corn root sections; assay: Ammonium ion uptake by corn root sections (ammonium ion-specific electrode); type: cell-based, Corn (Pioneer Hybrid 3320); conditions: 50 ppm test compound
# Experimental: as §1
# Two centimeter root sections were cut 0.5 to 2.5 cm from the tip of 3-day-old etiolated seedling roots. Batches of 20 (for corn and cotton), or 40 (for wheat, barley and rice) root sections were tied in cheesecloth bags, leaving a 20-30 cm length of string to facilitate movement between test solutions. Root tissue was washed at 30±1° by immersing the cheesecloth bags in a well-aerated 0.2 mM K2 HPO4 /KH2 PO4 solution, pH 6.0, for 4 hours. […]
# Ammonium ion uptake was determined by measuring the disappearance of ammonium ion from an uptake solution containing 1 mmol ammonium chloride, 0.2 mM calcium chloride and 5 mM MES buffer, pH 6.0, with an Orion ammonium ion-specific electrode. […]
# [9] = test system: corn plants; assay: Field test, grain yield of nitrogen-stressed corn; type: in vivo, corn (Pioneer Hybrid 3535)
# Experimental: Field tests were conducted by seeding corn (Pioneer Hybrid 3535) at a rate sufficient to obtain an excess plant population. The resulting population was thinned after emergence, 14 days after planting, to a density of about 64,000 plants per hectare, with plants about 20 cm apart in each row. The test population was subjected to severe nitrogen stress during development because only 67 kg nitrogen/hectare (60 lb/acre) were applied at planting. Nitrogen stress symptoms were apparent on lower plant leaves 32 days after emergence. Test compounds were applied to plants 34 days after emergence and 26 days prior to anthesis. Average canopy height at time of treatment was 85 cm. The treatments were applied from an acetone/water (1:3) solution with 0.2% added nonionic surfactant, using a hand-held nitrogen-pressurized sprayer. One day following treatment, an application of about 34 kg/ha (30 lb/acre) ammonium nitrate was broadcast on the ground and immediately worked into the root zone by irrigation.
# [10] = test system: rice root sections; assay: Nitrate ion uptake by plant root sections, rice; type: cell-based, rice (m101)
# Experimental: as §1, §5, §6
# [11] = test system: barley root sections; assay: Nitrate ion uptake by plant root sections, barley; type: cell-based, barley (CM-721)
# Experimental: as §1, §5, §6
# [12] = test system: corn plants; assay: Greenhouse test, growth of nitrate-deficient corn plants; type: in vivo; conditions: spray containing 50 ppm; 2-week old corn plants deficient in nitrate ion
# Experimental: Greenhouse tests were conducted by germinating corn seeds in a 25.4 cm pot containing a commercial potting soil mixture. After two weeks, seedlings were culled, leaving two plants in each pot. Distilled water was applied to maintain moisture levels and to leach carry-over nutrients from the potting soil mixtures. The remaining corn plants were randomized and divided into several groups for testing. Each test plant received a single 10 ml application of a test compound at 50 ppm, which was applied from a hand-held air-pressurized sprayer while the plant was rotated on a turntable in a spray hood. Each test compound was dissolved in a solution containing 50% (by volume) water and 50% AGWT diluent. AGWT diluent contains acetone, glycerol, water and polyoxyethylene sorbitan monolaurate in a volumetric ratio of 459:20:500:1. 250 mL of a complete, nitrate ion-free, potassium ion-free, and phosphate ion-free Hoagland nutrient solution were added to each pot twice weekly. This nutrient solution was supplemented with distilled water to maintain proper soil moisture. […] Plants were allowed to grow to maturity and yields were measured at the conclusion of each test.
smiles,measurement,setting,value
"CC[C@@H](CO)NC(=O)[C@@H]1CCCN1C(=O)OCc1ccccc1 [Example 6, N-Carbobenzoxy-L-prolyl-L-homoalaninol]",activation at 50 ppm,[1],20%
same,Ion Uptake (percent increase over control) NO3-,[2],24%
"CC(C)[C@@H](CO)NC(=O)[C@@H]1[C@@H](C)OCN1C(=O)OCc1ccccc1 [Example 13, N-Carbobenzoxy-5R-methyloxazolidine-4S-carbonyl-L-valinol]",Ion Uptake (percent increase over control) 36ClO3-,[1],20%
"CC(C)[C@H](CO)NC(=O)[C@H]1CCCN1C(=O)OCc1ccccc1 [Example 10, N-Carbobenzoxy-D-prolyl-D-valinol]",activation at 50 ppm,[1],41%
same,Ion Uptake (percent increase over control) NO3-,[2],36%
O=C(O)[C@@H]1COCN1C(=O)OCc1ccccc1 [3-Carbobenzoxyoxazolidine-4S-carboxylic acid],pKa,[3],4.35 and 4.30
O=C(O)[C@H]1COCN1C(=O)OCc1ccccc1 [3-Carbobenzoxy oxazolidine-4R-carboxylic acid],pKa,[3],3.80 and 3.90
"CC(C)[C@@H](CO)NC(=O)[C@@H]1CCCN1C(=O)OCc1ccccc1 [Example 2, N-Carbobenzoxy-L-prolyl-L-valinol]",activation at 50 ppm,[1],56%
same,NO3- Reductase (percent increase over control),[4],7%
same,Nitrate Ion Uptake (percent increase over control),"[5]; Sorghum root sections, 50 ppm",-5%
same,"Nitrate ion uptake enhancement, in words",[5]; sorghum root tissues,insensitive
same,Nitrate Ion Uptake (percent increase over control),"[6]; Wheat root sections, 50 ppm",55%
same,"Nitrate ion uptake enhancement, in words",[6]; wheat,Significant stimulation
same,Nitrate Ion Uptake (percent increase over control),"[7]; Cotton root sections, 50 ppm",-10%
same,"Nitrate ion uptake enhancement, in words",[7]; cotton root tissues,insensitive
same,Ion Uptake (percent increase over control) NH4+,[8],100%
same,Grain yield (average),"[9]; second round of field tests, 0.035, 0.07 and 0.14 kg/ha, controls average 321",348 bushels/ha
same,Increase in grain yield,"[9]; second round of field tests, application rates 0.035, 0.07 and 0.14 kg/ha, all three",8-10%
same,Grain yield,"[9]; sprayed with 500 ppm (0.14 kg/ha), field grown corn, control 232",248 bushels/ha
same,Increase in grain yield,"[9]; sprayed with 500 ppm (0.14 kg/ha), field grown corn, p=0.05, vs. control",6.3%
same,Ion Uptake (percent increase over control) NO3-,[2],65%
same,Nitrate Ion Uptake (percent increase over control),"[2]; Corn root sections, 50 ppm",65%
same,"Nitrate ion uptake enhancement, in words",[2]; corn,Significant stimulation
same,Optimal media concentration for stimulation of nitrate ion uptake,"[2]; immersed corn root sections, varying test concentrations",about 50 ppm
same,Nitrate Ion Uptake (percent increase over control),"[10]; Rice root sections, 50 ppm",10%
same,"Nitrate ion uptake enhancement, in words",[10]; rice root tissues,insensitive
same,Nitrate Ion Uptake (percent increase over control),"[11]; Barley root sections, 50 ppm",75%
same,"Nitrate ion uptake enhancement, in words",[11]; barley,Significant stimulation
"C[C@@H](CO)NC(=O)[C@@H]1CCCN1C(=O)OCc1ccccc1 [Example 5, N-Carbobenzoxy-L-prolyl-L-alaninol]",activation at 50 ppm,[1],20%
"CC(C)[C@@H](CO)NC(=O)[C@@H]1COCN1C(=O)OCc1ccccc1 [Example 12, N-Carbobenzoxy-L-γ-oxaprolyl-L-valinol]",Ion Uptake (percent increase over control) 36ClO3-,[1],18%
"CC(C)C[C@@H](CO)NC(=O)[C@@H]1CCCN1C(=O)OCc1ccccc1 [Example 1, N-Carbobenzoxy-L-prolyl-L-leucinol]",activation at 50 ppm,[1],26%
same,NO3- Reductase (percent increase over control),[4],-1%
same,Growth of corn plants,[12],stimulated growth
same,Ion Uptake (percent increase over control) NH4+,[8],80%
same,Ion Uptake (percent increase over control) NO3-,[2],40%
"CC(C)[C@@H](CO)NC(=O)[C@@H]1CCCN1C(=O)OCc1ccc(F)cc1 [Example 15, N-(4-Fluorobenzyloxycarbonyl)-L-prolyl-L-valinol]",activation at 50 ppm,[1],35%
same,Ion Uptake (percent increase over control) NO3-,[2],30%
"Cc1ccc(COC(=O)N2CCC[C@H]2C(=O)N[C@H](CO)C(C)C)cc1 [Example 17, N-(p-Methylbenzyloxycarbonyl) -L-prolyl-L-valinol]",activation at 50 ppm,[1],35%
same,Ion Uptake (percent increase over control) NO3-,[2],39%
C[C@H]1OCN(C(=O)OCc2ccccc2)[C@@H]1C(=O)O [3-carbobenzoxy-5R-methyloxazolidine-4S-carboxylic acid],pKa,[3],4.65 and 4.60
"CC(C)[C@@H](CO)NC(=O)[C@@H]1CCCN1C(=O)OCc1ccc(Cl)cc1 [Example 16, N-(p-Chlorobenzyloxycarbonyl) -L-prolyl-L-valinol]",activation at 50 ppm,[1],14%
"CC[C@H](CO)NC(=O)[C@@H]1CCCN1C(=O)OCc1ccccc1 [Example 7, N-Carbobenzoxy-L-prolyl-D-homoalaninol]",activation at 50 ppm,[1],40%
same,Ion Uptake (percent increase over control) NO3-,[2],41%
"CC(C)[C@H](CO)NC(=O)[C@@H]1CCCN1C(=O)OCc1ccccc1 [Example 8, N-Carbobenzoxy-L-prolyl-D-Valinol]",activation at 50 ppm,[1],12%
"O=C(NCCO)[C@@H]1CCCN1C(=O)OCc1ccccc1 [Example 4, N-Carbobenzoxy-L-prolyl-(β-hydroxyethyl)amide]",Ion Uptake (percent increase over control) 36ClO3-,[1],24%
same,NO3- Reductase (percent increase over control),[4],4%
same,Ion Uptake (percent increase over control) NO3-,[2],30%
"CC(C)[C@@H](CO)NC(=O)[C@H]1CCCN1C(=O)OCc1ccccc1 [Example 9, N-Carbobenzoxy-D-prolyl-L-valinol]",activation at 50 ppm,[1],37%
